# Patent publication US20110021524A1, “COMPOSITIONS AND METHODS FOR TREATING CANCERS” (IRM LLC, priority 2008, published 2011)
# Counter-ions that a name gives are not always drawn. Like-named read-outs stand apart in the source and are kept apart here.
# Assays:
# Ba/F3.p210 cells = experiment: Selection for resistant Ba/F3.p210 clones; type: cell-based; conditions: 1 μM imatinib or 5 or 10 μM GNF-2; day nine
# [1] = system: panel of 80 diverse kinases; conditions: cited from earlier work
# [2] = system: BCR-ABL transformed cells; conditions: read-out: IC50, cellular activity against BCR-ABL transformed cells; cited from earlier work
# [3] = system: 40 other tyrosine kinases; conditions: cited from earlier work
# [4] = system: phospho-Stat5 (downstream BCR-ABL signaling); experiment: In vivo target modulation, phospho-Stat5 in bone marrow of Ba/F3.p210-bearing mice; conditions: single dose 100 mg/kg; within 7 hours
# Procedure: Bone marrows were harvested after 3, 7 and 24 hours and were analyzed by flow cytometry for phospho-Stat5 levels using a specific phospho-Y694 antibody.
# [5] = system: wild type BCR-ABL transduced bone marrow; experiment: Bone marrow transduction/transplantation model, wild type BCR-ABL; type: in vivo, Balb/c mice; conditions: 50 mg/kg twice daily for seven days, from day 7 after transplantation
# [6] = system: p-Stat5 in T315I BCR-ABL expressing bone marrow cells; experiment: p-Stat5 positive bone marrow cells in T315I BCR-ABL transplantation model; conditions: end of efficacy study; nilotinib 50 mg/kg, GNF-5 75 mg/kg b.i.d. alone or combined
# [7] = Pharmacokinetic parameters in mice; type: in vivo; conditions: for bioavailability / concentration at 7 h: Balb/c, po, 20 mg/kg; for AUC(0-inf): oral, 5 mg/kg intravenously or 20 mg/kg orally
# Procedure: The compound plasma concentration at any given time point was determined by Liquid Chromatography/Mass Spectrometry (LC/MS/MS). Pharmacokinetic parameters were calculated by non-compartmental regression analysis using Winnonlin 4.0 software (Pharsight, Mountain View, Calif., USA).
# [8] = system: T315I BCR-ABL transduced bone marrow; experiment: Survival study, T315I BCR-ABL bone marrow transplantation model; type: in vivo, mice; conditions: GNF-5 75 mg/kg b.i.d. or nilotinib 50 mg/kg b.i.d.; vehicle 22 days
# [9] = system: T315I BCR-ABL-mediated Stat5 phosphorylation; experiment: T315I BCR-ABL-mediated Stat5 phosphorylation by flow cytometry; type: cell-based
# [10] = system: T315I BCR-ABL transduced bone marrow; type: in vivo; conditions: b.i.d. nilotinib 50 mg/kg or GNF-5 75 mg/kg alone; seven days
# [11] = system: Ba/F3 cells co-expressing BCR-ABL p210 and luciferase; experiment: In vivo efficacy in Ba/F3.p210 xenograft model; parameters: species or system SCID beige mice
# Procedure: Female SCID beige mice, 6-8 weeks of age (n=5 for each GNF-5-treated or vehicle control group) were injected via tail vein with 1×10^6 Ba/F3 cells co-expressing BCR-ABL p210 and luciferase. […] At days 5 and 7, bioluminescence was quantified using luciferin and an IVIS imaging system (Xenogen Corp., Alameda, Calif.).
# Disease was established in SCID beige mice by inoculation of Ba/F3 cells engineered to express wild-type p210 BCR-ABL and firefly luciferase, such that disease burden could be assessed after luciferin injection by non-invasive imaging using a Xenogen IVIS™ system. […] Responses were maintained within the 100 mg/kg group (T/C=17%) at day 7; however, the initial response to the 50 mg/kg b.i.d. regime was followed by a relapse (T/C of 66%) (FIG. 3A).
# CML = conditions: in vivo; cited from earlier work
# [12] = male, mouse, plasma, Balb/c mice, oral 20 mg/kg
smiles,measurement,setting,value
"NC(=O)c1cccc(-c2cc(Nc3ccc(OC(F)(F)F)cc3)ncn2)c1 [GNF-2, 3-[6-(4-Trifluoromethoxy-phenylamino)-pyrimidin-4-yl]-benzamide]","emergence of resistant colonies, single agent",Ba/F3.p210 cells,emergence of resistant colonies
same,inhibition of the biochemical activity of a panel of 80 diverse kinases,[1],did not inhibit
same,IC50,[2],140 nM
same,inhibition of the activity of 40 other tyrosine kinases in cellular assays,[3],did not inhibit
"O=C(NCCO)c1cccc(-c2cc(Nc3ccc(OC(F)(F)F)cc3)ncn2)c1 [GNF-5, N-(2-hydroxyethyl)-3-(6-(4-(trifluoromethoxy)phenylamino)pyrimidin-4-yl)benzamide]",pStat5 levels in bone marrow,[4],Significant reduction
same,peripheral blood cell counts,[5],normal blood cell counts
same,spleen weight,[5],normal spleen weights
same,percentage of p-Stat5 positive BCR-ABL expressing bone marrow cells,[6],approx. 25%
same,T½,"[7]; Balb/c mice, oral 20 mg/kg",2.30 ± 0.10 h
same,bioavailability,"[7]; male, mouse, plasma, Balb/c mice, 20 mg/kg oral vs 5 mg/kg intravenous, read-out: F (%)",44.8 ± 7.54%
same,concentration at 7 h,"[7]; male, mouse, plasma, Balb/c mice, oral 20 mg/kg, 7 hours, read-out: Clast",636 ± 121 nM
same,concentration at 7 h,"[7]; male, mouse, plasma, oral 20 mg/kg, Balb-C mice, read-out: concentration after 7 hours",630 ± 120 nM
same,bioavailability,"[7]; male, mouse, plasma, oral 20 mg/kg, Balb-C mice, read-out: oral bioavailability",44.8 ± 7.5%
same,AUC(0-inf),"[7]; male, mouse, plasma, Balb/c mice, route not given, read-out: AUC_inf (hrs * nM)",11.6 ± 1.96 µM·h
same,AUC(0-inf),"[7]; male, mouse, plasma, Balb/c mice, route not given, read-out: AUC_inf (min * ug/mL) (converted)",4870 ng·h/mL
same,Cmax,[7]; [12],4370 ± 1340 nM
same,Tmax,[7]; [12],0.5 h
same,Vd,"[7]; male, mouse, plasma, Balb/c mice, route not given, read-out: Vss",9.18 ± 1.82 L/kg
same,half-life,"[7]; male, mouse, plasma, oral 20 mg/kg, Balb-C mice, read-out: terminal half-life (converted)",2.3 h
same,maximum concentration,"[7]; oral 20 mg/kg, Balb-C mice",4.4 ± 1.3 µM
same,time of maximum concentration,"[7]; oral 20 mg/kg, Balb-C mice",0.5 h
same,median survival,[8],28 days
same,effect on T315I BCR-ABL-mediated Stat5 phosphorylation,"[9]; 10 μM nilotinib or 1 μM GNF-5 alone, or the two combined",no effect
same,response compared to the vehicle group,[10],no significant response
same,tumor/control (T/C),"[11]; 50 mg/kg b.i.d. oral, day 7 (relapse)",66%
same,tumor/control (T/C),"[11]; 50 mg/kg b.i.d. oral, fifth day",16%
same,tumor/control (T/C),"[11]; 100 mg/kg b.i.d. oral, day 7",17%
same,tumor/control (T/C),"[11]; 100 mg/kg b.i.d. oral, fifth day",7%
same,tolerability of efficacious doses in vivo,[11]; 50 or 100 mg/kg b.i.d.,well-tolerated
Cc1ccc(NC(=O)c2ccc(CN3CCN(C)CC3)cc2)cc1Nc1nccc(-c2cccnc2)n1 [Imatinib mesylate],response rates in CML,CML,more than 96%
"Cc1cn(-c2cc(NC(=O)c3ccc(C)c(Nc4nccc(-c5cccnc5)n4)c3)cc(C(F)(F)F)c2)cn1 [nilotinib, reference compound]",percentage of p-Stat5 positive BCR-ABL expressing bone marrow cells,[6],approx. 25%
same,median survival,[8],32 days
same,effect on T315I BCR-ABL-mediated Stat5 phosphorylation,[9],no effect
same,response compared to the vehicle group,[10],no significant response
